For 43 molecules, EC50 results are on record in patent publication US10034886B2, “GLP-1 receptor modulators” (Celgene International II SÀRL, priority 2014, dated 2018).

T1 sequence (P43220 24-463): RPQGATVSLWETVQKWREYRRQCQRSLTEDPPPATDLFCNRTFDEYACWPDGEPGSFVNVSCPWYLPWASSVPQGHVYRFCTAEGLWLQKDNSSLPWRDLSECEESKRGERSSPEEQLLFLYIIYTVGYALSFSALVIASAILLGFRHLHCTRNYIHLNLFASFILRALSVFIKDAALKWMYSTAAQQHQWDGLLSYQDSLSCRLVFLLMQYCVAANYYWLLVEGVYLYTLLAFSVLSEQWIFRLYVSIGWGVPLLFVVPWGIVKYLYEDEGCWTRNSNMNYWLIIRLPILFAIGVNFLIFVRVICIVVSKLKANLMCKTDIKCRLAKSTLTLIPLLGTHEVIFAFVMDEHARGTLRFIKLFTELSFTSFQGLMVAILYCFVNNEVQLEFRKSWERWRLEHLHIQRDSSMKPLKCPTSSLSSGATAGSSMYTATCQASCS
T1 sequence (P01275 100-127 partner limits assumed): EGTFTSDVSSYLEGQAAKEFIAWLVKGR

The test concerns the target T1, GLP-1R (Homo sapiens, UniProt P43220).
T1 construct: host or cells: GLP-1R CRE-bla CHO-K1 cells
The test can be described thus: EC20 GLP-1(9-36) PAM cAMP assay: dose response of compound in the presence of fixed concentration of GLP-1(9-36). In kind it is cell-based. The note with it: GLP-1R CRE-bla CHO-K1 cells, compound dose response with fixed concentration of GLP-1(9-36), read-out: EC20 GLP-1(9-36) PAM EC50. The essentials:
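Positive allosteric modulation read as cAMP accumulation: compound titrations (12 points) combined with an EC20 level of GLP-1(9-36) on CHO-K1 GLP-1R CRE-bla cells, IBMX present, 30 min, 37 °C, pH 7.4 buffer. Luminescence converted to cAMP via standards; non-linear fit gave EC50 and Emax.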
As usually defined, the EC50 is the midpoint of the concentration-response curve. In the case of `CCCc1ccc(-c2ccc(-c3cnc(-c4ccc(C[C@H](NC(=O)c5ccc(OC(C)(C)C)cc5)C(=O)N5CC(C(=O)O)C5)cc4)nc3)c(F)c2)cc1` [Compound 1403], the 50% effective concentration (EC50) is under 800 nM.
For `CCCc1ccc(-c2ccc(-c3cnc(-c4ccc(C[C@H](NC(=O)c5ccc(S(C)(=O)=O)cc5)C(=O)N5CC(C(=O)O)C5)cc4)nc3)c(F)c2)cc1` [Compound 1404], the EC50 is under 800 nM.
To `CCCc1ccc(-c2ccc(-c3cnc(-c4ccc(C[C@H](NC(=O)c5ccc(CC(C)C)s5)C(=O)N5CC(C(=O)O)C5)cc4)nc3)c(F)c2)cc1` [Compound 1405] belongs under 800 nM; to `CCCc1ccc(-c2ccc(-c3cnc(-c4ccc(C[C@H](NC(=O)c5ccc(C6CC6)s5)C(=O)N5CC(C(=O)O)C5)cc4)nc3)c(F)c2)cc1` [Compound 1406], under 800 nM.
In the case of `CCCc1ccc(-c2ccc(-c3cnc(-c4ccc(C[C@H](NC(=O)c5ccc(CC(C)C)cc5)C(=O)N5CC(C(=O)O)C5)cc4)nc3)c(F)c2)cc1` [Compound 1407], the EC50 was under 800 nM.
With `CCCc1ccc(-c2ccc(-c3cnc(-c4ccc(C[C@H](NC(=O)c5ccc(C(C)C)cc5)C(=O)N5CC(C(=O)O)C5)cc4)nc3)c(F)c2)cc1` [Compound 1408] the figure was under 800 nM.
With `CCCc1ccc(-c2ccc(-c3cnc(-c4ccc(C[C@H](NC(=O)c5ccc(CCC)s5)C(=O)N5CC(C(=O)O)C5)cc4)nc3)c(F)c2)cc1` [Compound 1409] the figure was under 800 nM.
To `CCCc1ccc(-c2ccc(-c3cnc(-c4ccc(C[C@H](NC(=O)c5ccc(C6CC6)cc5)C(=O)N5CC(C(=O)O)C5)cc4)nc3)c(F)c2)cc1` [Compound 1410] belongs under 800 nM; to `CCCCc1ccc(C2CCN(c3cnc(-c4ccc(C[C@H](NC(=O)c5ccc(C(C)(C)C)s5)C(=O)N5CC(C(=O)O)C5)cc4)nc3)CC2)cc1` [Compound 1412, (S)-1-(2-(5-(tert-butyl)thiophene-2-carboxamido)-3-(4-(5-(4-(4-butylphenyl)-piperidin-1-yl)pyrimidin-2-yl)phenyl)propanoyl)azetidine-3-carboxylic acid], under 800 nM; to `CCC[C@H]1CC[C@H](C2CCN(c3cnc(-c4ccc(C[C@H](NC(=O)c5ccc(C(C)(C)C)s5)C(=O)N5CC(C(=O)O)C5)cc4)nc3)CC2)CC1` [Compound 1413, 1-((S)-2-(5-(tert-butyl)thiophene-2-carboxamido)-3-(4-(5-(4-((1s,4r)-4-propylcyclohexyl)piperidin-1-yl)pyrimidin-2-yl)phenyl)propanoyl)azetidine-3-carboxylic acid], under 800 nM.
With `CCC[C@H]1CC[C@H](C2CCN(c3cnc(-c4ccc(C[C@H](NC(=O)c5ccc(C(C)(C)C)cc5)C(=O)N5CC(C(=O)O)C5)cc4)nc3)CC2)CC1` [Compound 1414], the 50% effective concentration (EC50) is under 800 nM.
With `CC(C)(C)OC(=O)N1CCC(C2CCN(c3cnc(-c4ccc(C[C@H](NC(=O)c5ccc(C(C)(C)C)s5)C(=O)N5CC(C(=O)O)C5)cc4)nc3)CC2)CC1` [Compound 1415] the figure was 5000 to 10000 nM.
In the case of `CCC[C@H]1CC[C@H](C2CCN(c3cnc(-c4ccc(C[C@H](NC(=O)c5ccc(C(C)(C)C)s5)C(=O)N5CC[C@H](C(=O)O)C5)cc4)nc3)CC2)CC1` [Compound 1416], the EC50 was under 800 nM.
Take `CCCc1ccc(C2CN(c3cnc(-c4ccc(CC(NC(=O)c5ccc(C(C)(C)C)s5)C(=O)N5CC(C(=O)O)C5)cc4)nc3)C2)cc1` (stereo not shown) [Compound 1417]: the EC50 lay within 800 to 2500 nM.
To `CCc1ccc(C2CN(c3cnc(-c4ccc(CC(NC(=O)c5ccc(C(C)(C)C)s5)C(=O)N5CC(C(=O)O)C5)cc4)nc3)C2)cc1` (stereo not shown) [Compound 1418] belongs 5000 to 10000 nM; to `CCC[C@H]1CC[C@H](C2CCN(c3cnc(-c4ccc(C[C@H](NC(=O)c5ccc(C(C)(C)C)s5)C(=O)N5CCC[C@H]5C(=O)O)cc4)nc3)CC2)CC1` [Compound 1419], under 800 nM.
For `CCC[C@H]1CC[C@H](N2CCN(c3cnc(-c4ccc(CC(NC(=O)c5ccc(C(C)(C)C)s5)C(=O)N5CC(C(=O)O)C5)cc4)nc3)C(=O)C2)CC1` (stereo partly shown) [Compound 1420], the concentration for a half-maximal effect (EC50) lay within 2500 to 5000 nM.
Turning to `CC(C)(C)c1ccc(C(=O)NC(Cc2ccc(-c3ncc(N4CCC5CCCCC5C4)cn3)cc2)C(=O)N2CC(C(=O)O)C2)s1` (stereo not shown) [Compound 1421], the half-maximal effective concentration (EC50) is under 800 nM.
With `CC(C)C1CCN(c2cnc(-c3ccc(CC(NC(=O)c4ccc(C(C)(C)C)s4)C(=O)N4CC(C(=O)O)C4)cc3)nc2)CC1` (stereo not shown) [Compound 1422] the figure was 800 to 2500 nM; with `CC(C)(C)c1ccc(C(=O)NC(Cc2ccc(-c3ncc(N4CCC(C#N)(c5ccccc5)CC4)cn3)cc2)C(=O)N2CC(C(=O)O)C2)s1` (stereo not shown) [Compound 1423], 800 to 2500 nM.
With `CC1(C)CCC(C2CCN(c3cnc(-c4ccc(C[C@H](NC(=O)c5ccc(C(C)(C)C)s5)C(=O)N5CC(C(=O)O)C5)cc4)nc3)CC2)CC1` [Compound 1424] the figure was under 800 nM; with `COc1ccc(C2CCN(c3cnc(-c4ccc(C[C@H](NC(=O)c5ccc(C(C)(C)C)s5)C(=O)N5CC(C(=O)O)C5)cc4)nc3)CC2)cc1` [Compound 1425], 800 to 2500 nM.
With `CC(C)(C)c1ccc(C(=O)N[C@@H](Cc2ccc(-c3ncc(N4CCC(c5ccccc5)CC4)cn3)cc2)C(=O)N2CC(C(=O)O)C2)s1` [Compound 1426] the figure was 800 to 2500 nM; with `CC1CCC(C2CCN(c3cnc(-c4ccc(C[C@H](NC(=O)c5ccc(C(C)(C)C)s5)C(=O)N5CC(C(=O)O)C5)cc4)nc3)CC2)CC1` (stereo partly shown) [Compound 1427], under 800 nM; with `CCCCC1CCC(C2CCN(c3cnc(-c4ccc(C[C@H](NC(=O)c5ccc(C(C)(C)C)s5)C(=O)N5CC(C(=O)O)C5)cc4)nc3)CC2)CC1` (stereo partly shown) [Compound 1428], under 800 nM.
As to `CCC1CCC(C2CCN(c3cnc(-c4ccc(C[C@H](NC(=O)c5ccc(C(C)(C)C)s5)C(=O)N5CC(C(=O)O)C5)cc4)nc3)CC2)CC1` (stereo partly shown) [Compound 1429], the EC50 was under 800 nM.
As for `Cc1ccc(C2CCN(c3cnc(-c4ccc(C[C@H](NC(=O)c5ccc(C(C)(C)C)s5)C(=O)N5CC(C(=O)O)C5)cc4)nc3)CC2)cc1` [Compound 1430], the EC50 was under 800 nM.
Consider `CC(C)(C)c1ccc(C(=O)N[C@@H](Cc2ccc(-c3ncc(N4CCC(C5CCCCC5)CC4)cn3)cc2)C(=O)N2CC(C(=O)O)C2)s1` [Compound 1431], for which the concentration for a half-maximal effect (EC50) was under 800 nM.
To `CCCc1ccc(C2CCN(c3cnc(-c4ccc(C[C@H](NC(=O)c5ccc(C(C)(C)C)s5)C(=O)N5CC(C(=O)O)C5)cc4)nc3)CC2)cc1` [Compound 1432] belongs under 800 nM.
Regarding `CCC[C@H]1CC[C@H](C2CCN(c3cnc(-c4ccc(C[C@H](NC(=O)c5ccc(C(C)(C)C)s5)C(=O)NCCC(=O)O)cc4)nc3)CC2)CC1` [Compound 1433], the 50% effective concentration (EC50) is under 800 nM.
To `CCCC1CCC(N2CC=C(c3cnc(-c4ccc(C[C@H](NC(=O)c5ccc(C(C)(C)C)s5)C(=O)N5CC(C(=O)O)C5)cc4)nc3)CC2)CC1` (stereo partly shown) [Compound 1434] belongs 5000 to 10000 nM.
With `CCC[C@H]1CC[C@H](N2CCN(c3cnc(-c4ccc(C[C@H](NC(=O)c5ccc(C(C)(C)C)s5)C(=O)N5CC(C(=O)O)C5)cc4)nc3)CC2)CC1` [Compound 1435] the figure was 800 to 2500 nM; with `CCC[C@H]1CC[C@@H](N2CCN(c3cnc(-c4ccc(C[C@H](NC(=O)c5ccc(C(C)(C)C)s5)C(=O)N5CC(C(=O)O)C5)cc4)nc3)CC2)CC1` [Compound 1436], 800 to 2500 nM; with `CCC[C@H]1CC[C@H](C2CCN(c3cnc(-c4ccc(C[C@H](NC(=O)c5ccc(C(C)(C)C)s5)C(=O)N[C@H](C)C(=O)O)cc4)nc3)CC2)CC1` [Compound 1437], under 800 nM.
To `CCC[C@H]1CC[C@H](C2CCN(c3cnc(-c4ccc(C[C@H](NC(=O)c5ccc(C(C)(C)C)s5)C(=O)NS(C)(=O)=O)cc4)nc3)CC2)CC1` [Compound 1438, 5-(tert-butyl)-N—((S)-1-(methylsulfonamido)-1-oxo-3-(4-(5-(4-((1s,4r)-4-propylcyclohexyl)piperidin-1-yl)pyrimidin-2-yl)phenyl)propan-2-yl)thiophene-2-carboxamide] belongs under 800 nM; to `CCC[C@H]1CC[C@H](C2CCN(c3cnc(-c4ccc(C[C@H](NC(=O)c5ccc(C(C)(C)C)s5)C(=O)O)cc4)nc3)CC2)CC1` [Compound 1439, (S)-2-(5-(tert-butyl)thiophene-2-carboxamido)-3-(4-(5-(4-((1s,4r)-4-propylcyclohexyl)piperidin-1-yl)pyrimidin-2-yl)phenyl)propanoic acid], under 800 nM.
On to `CC(C)(C)c1ccc(C(=O)N[C@@H](Cc2ccc(-c3ccc(-n4c5ccccc5c5ccccc54)cc3)cc2)C(=O)O)s1` [Compound 1440], for which the EC50 was 5000 to 10000 nM.
To `CCC[C@H]1CC[C@H](C2CCN(c3cnc(-c4ccc(C[C@H](NC(=O)c5ccc(C(C)(C)C)s5)C(=O)N[C@H](C)C(N)=O)cc4)nc3)CC2)CC1` [Compound 1441] belongs 800 to 2500 nM.
For `CCC[C@H]1CC[C@H](C2CCN(c3cnc(-c4ccc(C[C@H](NC(=O)c5ccc(C(C)(C)C)s5)C(=O)N5CC(c6nn[nH]n6)C5)cc4)nc3)CC2)CC1` [Compound 1442], the EC50 was under 800 nM.
With `CCC[C@H]1CC[C@H](C2CCN(c3cnc(-c4ccc(C[C@H](NC(=O)c5ccc(C(C)(C)C)s5)C(=O)N[C@H](CC)C(=O)O)cc4)nc3)CC2)CC1` [Compound 1443] the figure was under 800 nM.
To `CCC[C@H]1CC[C@H](C2CCN(c3cnc(-c4ccc(C[C@H](NC(=O)c5ccc(C(C)(C)C)s5)C(=O)N[C@@H](C(=O)O)C5CC5)cc4)nc3)CC2)CC1` [Compound 1444] belongs under 800 nM; to `CCC[C@H]1CC[C@H](C2CCN(c3cnc(-c4ccc(C[C@H](NC(=O)c5ccc(C(C)(C)C)s5)C(=O)N[C@H](CCC(N)=O)C(=O)O)cc4)nc3)CC2)CC1` [Compound 1445], under 800 nM; to `CCC[C@H]1CC[C@H](C2CCN(c3cnc(-c4ccc(C[C@H](NC(=O)c5ccc(C(C)(C)C)s5)C(=O)N[C@H](Cc5c[nH]cn5)C(=O)O)cc4)nc3)CC2)CC1` [Compound 1446], under 800 nM.
